ChEMBL document CHEMBL5214900, “Design, Synthesis, and Biological Evaluation of Membrane-Active Bakuchiol Derivatives as Effective Broad-Spectrum Antibacterial Agents” (J Med Chem, 2021)
≈ marks a conversion by molar mass, not a printed value. Calls of active or inactive are those of the source. The rule behind the calls is not given here.

Assays:
[1] = tested on: Staphylococcus aureus; test: Antibacterial activity against methicillin-resistant Staphylococcus aureus N315 assessed as inhibition of bacterial growth incubated for 24 hrs by CLSI based broth dilution method; format: functional
[2] = tested on: Staphylococcus aureus; test: Antibacterial activity against methicillin-resistant Staphylococcus aureus NCTC10442 assessed as inhibition of bacterial growth incubated for 24 hrs by CLSI based broth dilution method; format: functional
[3] = Hemolytic activity in rabbit RBC measured after 1 hrs by multimode reader assay; format: toxicity, cell-based, Oryctolagus cuniculus, Erythrocyte; conditions: rabbit red blood cells (erythrocytes)
[4] = tested on: Klebsiella pneumoniae; test: Antibacterial activity against Klebsiella pneumoniae ATCC 10031 assessed as inhibition of bacterial growth incubated for 24 hrs by CLSI based broth dilution method; format: functional
[5] = tested on: Staphylococcus aureus; test: Antibacterial activity against Staphylococcus aureus ATCC 29213 assessed as fold increase in MIC incubated for 24 hrs in presence of 2.5 mM Ca2+ by CLSI based broth dilution method; format: functional
[6] = tested on: Staphylococcus aureus; test: Antibacterial activity against Staphylococcus aureus ATCC 29213 assessed as fold increase in MIC incubated for 24 hrs in presence of 1 mM Mg2+ by CLSI based broth dilution method; format: functional
[7] = tested on: Staphylococcus aureus; test: Antibacterial activity against Staphylococcus aureus NCTC10442 assessed as fold increase in MIC incubated for 24 hrs in presence of 140 mM Na+ by CLSI based broth dilution method; format: functional
[8] = tested on: Staphylococcus aureus; test: Antibacterial activity against Staphylococcus aureus NCTC10442 assessed as fold increase in MIC incubated for 24 hrs in presence of 4.5 mM K+ by CLSI based broth dilution method; format: functional
[9] = tested on: Staphylococcus aureus; test: Antibacterial activity against Staphylococcus aureus NCTC10442 assessed as fold increase in MIC incubated for 24 hrs in presence of 1 mM Mg2+ by CLSI based broth dilution method; format: functional
[10] = tested on: Escherichia coli; test: Antibacterial activity against Escherichia coli ATCC 25922 assessed as fold increase in MIC incubated for 24 hrs in presence of 140 mM Na+ by CLSI based broth dilution method; format: functional
[11] = tested on: Escherichia coli; test: Antibacterial activity against Escherichia coli ATCC 25922 assessed as fold increase in MIC incubated for 24 hrs in presence of 2.5 mM Ca2+ by CLSI based broth dilution method; format: functional
[12] = tested on: Staphylococcus aureus; test: Bactericidal activity against Staphylococcus aureus ATCC 29213 assessed as bacterial killing at 8 times MIC measured after 24 hrs by time-killing assay relative to control; format: functional
[13] = tested on: Staphylococcus aureus; test: Bactericidal activity against Staphylococcus aureus ATCC 29213 assessed as log reduction in viable bacteria at 8 times MIC measured after 8 hrs by time-killing assay; format: functional
[14] = tested on: Cell membrane; test: Disruption of membrane integrity in Staphylococcus aureus ATCC 29213 assessed as increase in fluorescence intensity at 1 to 8 times MIC by SYTOX green dye based fluorescence analysis; conditions: DDE = dose-dependent effect
[15] = tested on: Cell membrane; test: Disruption of membrane integrity in Staphylococcus aureus ATCC 29213 assessed as increase in red fluorescence intensity at 8 times MIC incubated for 2 hrs by SYTO 9/PI staining based fluorescence analysis; format: subcellular
[16] = tested on: Cell membrane; test: Induction of outer membrane permeabilization in Escherichia coli ATCC 25922 assessed as increase in fluorescence intensity at 1 to 8 times MIC measured for 60 mins by NPN uptake assay; format: subcellular; conditions: DDE = dose-dependent effect
[17] = tested on: Lipoteichoic acid; test: Displacement of BODIPY-TR-cadaverine from Bacillus subtilis Lipoteichoic acid at 2 times MIC measured for 30 mins by fluorescence based microplate reader assay relative to control
[18] = tested on: Lipopolysaccharide (LPS); test: Displacement of BODIPY-TR-cadaverine from Escherichia coli Lipopolysaccharide at 4 times MIC measured for 30 mins by fluorescence based microplate reader assay relative to control
[19] = tested on: Lipopolysaccharide (LPS); test: Displacement of BODIPY-TR-cadaverine from Escherichia coli Lipopolysaccharide at 8 times MIC measured for 30 mins by fluorescence based microplate reader assay relative to control
[20] = tested on: Staphylococcus aureus; test: Induction of drug resistance in Staphylococcus aureus ATCC 29213 assessed as fold change in MIC measured after 19 passages by CLSI based broth dilution method; format: functional
[21] = tested on: Escherichia coli; test: Induction of drug resistance in Escherichia coli ATCC 25922 assessed as fold change in MIC measured after 19 passages by CLSI based broth dilution method; format: functional
[22] = Cytotoxicity against mouse NCTC clone 929 cells assessed as cell viability at 3.125 ug/ml incubated for 24 hrs by CCK-8 assay relative to control; format: toxicity, cell-based; conditions: at 3.125 µg/mL, read-out: Activity
[23] = Cytotoxicity against mouse NCTC clone 929 cells assessed as cell viability at 25 ug/ml incubated for 24 hrs by CCK-8 assay relative to control; format: toxicity, cell-based; conditions: at 25 µg/mL, read-out: Activity
[24] = Cytotoxicity against HEK293 cells assessed as cell viability at 6.25 ug/ml incubated for 24 hrs by CCK-8 assay relative to control; format: toxicity, cell-based; conditions: human, at 6.25 µg/mL, read-out: Activity
[25] = Cytotoxicity against HEK293 cells assessed as cell viability at 50 ug/ml incubated for 24 hrs by CCK-8 assay relative to control; format: toxicity, cell-based; conditions: human, at 50 µg/mL, read-out: Activity
[26] = tested on: Escherichia coli; test: Antibiofilm activity against Escherichia coli ATCC 25922 assessed reduction in biofilm formation at 0.39 ug/ml measured after 24 hrs by crystal violet staining based assay relative to control; format: functional; parameters: scale not given: the % may be the effect or the level left; conditions: dose 0.39 µg/ml
[27] = tested on: Staphylococcus aureus; test: Antibiofilm activity against Staphylococcus aureus ATCC 29213 assessed reduction in biofilm formation at […] ug/ml measured after 24 hrs by crystal violet staining based assay relative to control; format: functional; parameters: scale not given: the % may be the effect or the level left; conditions: dose […] microg/ml, 1.56 ug/mL
[28] = tested on: Staphylococcus aureus; test: Antibiofilm activity against Staphylococcus aureus ATCC 29213 assessed reduction in biofilm formation at 3.125 ug/ml measured after 24 hrs by crystal violet staining based assay relative to control; format: functional; parameters: scale not given: the % may be the effect or the level left; conditions: dose 3.125 µg/ml
[29] = tested on: Escherichia coli; test: Antibiofilm activity against Escherichia coli ATCC 25922 assessed reduction in biofilm formation at […] ug/ml measured after 24 hrs by crystal violet staining based assay relative to control; format: functional; parameters: scale not given: the % may be the effect or the level left; conditions: dose […] microg/ml, 1.56 ug/mL
[30] = tested on: Escherichia coli; test: Antibiofilm activity against Escherichia coli ATCC 25922 assessed reduction in biofilm formation at 3.125 ug/ml measured after 24 hrs by crystal violet staining based assay relative to control; format: functional; parameters: scale not given: the % may be the effect or the level left; conditions: dose 3.125 µg/ml
[31] = tested on: Escherichia coli; test: Antibiofilm activity against Escherichia coli ATCC 25922 assessed reduction in biofilm formation at 6.25 ug/ml measured after 24 hrs by crystal violet staining based assay relative to control; format: functional; parameters: scale not given: the % may be the effect or the level left; conditions: dose 6.25 µg/ml
[32] = tested on: Staphylococcus aureus; test: Antibacterial activity against Staphylococcus aureus ATCC 29213 assessed as eradication of preformed bacterial biofilm by measuring residual biofilm viability at 0.78 ug/ml incubated for 24 hrs by crystal violet staining based assay relative to control; format: functional; conditions: dose 0.78 µg/ml
[33] = tested on: Escherichia coli; test: Antibacterial activity against Escherichia coli ATCC 25922 assessed as eradication of preformed bacterial biofilm by measuring residual biofilm viability at […] ug/ml incubated for 24 hrs by crystal violet staining based assay relative to control; format: functional; conditions: dose […] microg/ml, 1.56 ug/mL
[34] = tested on: Escherichia coli; test: Antibacterial activity against Escherichia coli ATCC 25922 assessed as eradication of preformed bacterial biofilm by measuring residual biofilm viability at 3.125 ug/ml incubated for 24 hrs by crystal violet staining based assay relative to control; format: functional; conditions: dose 3.125 µg/ml

With `C=C[C@@](C)(/C=C/c1ccc(OCCCCN(CCCN(C)C)CCCN(C)C)cc1)CCC=C(C)C` as the compound, how does the MIC [1] read?
The MIC was 1.56 µg/mL (≈ 3.13 µM).

What about the MIC [2] of the same compound?
Its MIC is 1.56 µg/mL (≈ 3.13 µM).

What about the HC50 at 1 h [3] of the same compound?
The HC50 at 1 h was 113 µg/mL.

What about the MIC [4] of the same compound?
The MIC was 3.12 µg/mL (≈ 6.28 µM).

What about the “fold change (FC)” value [5] of the same compound?
The value was <2.

And the “fold change (FC)” value [6]?
The value was <2.

And the “fold change (FC)” value [7]?
The value was <2.

What about the “fold change (FC)” value [8] of the same compound?
The value was <2.

What about the “fold change (FC)” value [9] of the same compound?
The value was <2.

And the “fold change (FC)” value [10]?
Its value is <2.

What about the “fold change (FC)” value [11] of the same compound?
Its value is <2.

And the Activity [12]?
Its Activity is 100%.

What about the “log(activity)” value [13] of the same compound?
The value was 3.52.

What about the Activity [14] of the same compound?
The Activity was “Dde”.

And the Activity [15]?
The Activity was “Active”.

What about the Activity [16] of the same compound?
The Activity was “Dde”.

And the Activity [17]?
Its Activity is 35.3%.

What about the Activity [18] of the same compound?
Its Activity is 64.4%.

What about the Activity [19] of the same compound?
Its Activity is 85.6%.

And the fold change (FC) [20]?
Its fold change (FC) is < 4.

And the fold change (FC) [21]?
Its fold change (FC) is < 4.

And the viability at 24 h, 3.125 ug/ml [22]?
The viability at 24 h, 3.125 ug/ml was 88.9%.

And the viability at 24 h, 25 ug/ml [23]?
Its viability at 24 h, 25 ug/ml is 74.1%.

And the viability at 24 h, 6.25 ug/ml [24]?
The viability at 24 h, 6.25 ug/ml was 93.8%.

And the viability at 24 h, 50 ug/ml [25]?
Its viability at 24 h, 50 ug/ml is 14.4%.

What about the Activity [26] of the same compound?
Its Activity is 4.04%.

And the Activity [27]?
The Activity was 42.21%.

What about the Activity [28] of the same compound?
The Activity was 96.53%.

And the Activity [29]?
Its Activity is 38.45%.

And the Activity [30]?
Its Activity is 92.62%.

What about the Activity [31] of the same compound?
The Activity was 95.7%.

And the Activity [32]?
The Activity was 88.63%.

And the Activity [33]?
Its Activity is 69.09%.

And the Activity [34]?
The Activity was 49.85%.
